Earlier results on 12 molecules are cited in patent publication US20240252571A1, “Hemp Essential Oil” (priority 2023, published 2024).

Entries after “also recorded” stand apart in the source; their conditions may differ. Where two headings read alike, the source gives them in different places. Where a SMILES comes first, the peptide text is derived from it. A value given as a limit tells only on which side of the number the result lay.

For one data set, the system named is itching. As to conditions: murine models.
For data set [1], the system named is Methicillin-resistant Staphylococcus aureus (MRSA).
The subject of another data set is human skin equivalents. Conditions: compared with CBD.
Data set [2] has as its system Human dermal fibroblasts (HDFs). As to conditions: compared with vitamin C.
Data set [3] concerns Interleukin-1β, -6, -8, tumor necrosis factor α release. As to conditions: inducers UVA, UVB, chemical, C. acnes.
In data set [4] the test system is intracellular calcium concentration of SZ95 sebocytes. Conditions: for effect on the CBD-induced increase of [Ca2+]IC: with CBD.
The next data set has as its system mild AD. As to conditions: pediatric population.
For another data set, the system named is Enterococcus faecalis. Conditions: E. faecalis.
For data set [5], the system named is Methicillin-resistant Staphylococcus epidermidis (MRSE).
Data set [6] concerns SZ95 sebocytes. As to conditions: for effect on the lipid synthesis-inhibitory (lipostatic) action of CBD: coapplication with CBD.
Data set [7] deals with SZ95 sebocytes.
A further data set concerns human sebaceous glands. As to conditions: ex vivo hSOC.
For data set [8], the system named is TNFA, IL1B and IL6 expression in human sebocytes.
Data set [9] has as its system ionic currents of SZ95 sebocytes. As to conditions: CBD 10 μM, voltage ramp, -90 and +90 mV.
For data set [10] the following is noted: ethosomal carriers, murine model.
The conditions of data set [11]: CBD 1-10% gel, monoarthritic rat; plasma concentration linear with dose.
The test system of data set [12] is Normal Human Epidermal Keratinocytes (NHEK). Conditions: HMOX1 most upregulated.
A further data set relates to mice epidermis. Conditions: topical application.
Data set [13] deals with allergic contact dermatitis model. As to conditions: experimental allergic contact dermatitis model.
The test system of the next data set is Listeria monocytogenes. As to conditions: L. monocytogenes.
The conditions of data set [14]: in vitro diffusion, human tissue.
The mark [15] stands for this setting: lower CBD concentrations, 1-100 nM.

In the case of `CCCCCc1cc(O)c2c(c1)OC(C)(C)[C@@H]1CCC(C)=C[C@@H]21` [THC, tetrahydrocannabinol], in the data set with itching, the itching result is “reduce itching”.

`CCCCCCCCCCCCCCCC(=O)NCCO` [PEA]: in the data set with itching, the itching result is listed as “reduce itching”.

Consider `CCCCCc1cc(O)c(C/C=C(\C)CCC=C(C)C)c(O)c1` [CBG, cannabigerol], for which the “activity against a variety of MRSA strains” value in data set [1] is reported as “potent activity”. Besides, the genes regulated entry in the data set with human skin equivalents was “regulates more genes than CBD”. The “reactive oxygen species levels” value in [2] was “reduce reactive oxygen species levels in HDFs better than vitamin C”. Further, in [3], the pro-inflammatory cytokine release entry is on record as “inhibits”.

Regarding `N.N.N.N.N.N.N.N.N.N.N.N.N.N.[Cl-].[Cl-].[Cl-].[Cl-].[Cl-].[Cl-].[O-2].[O-2].[Ru+3].[Ru+3].[Ru+4]` [ruthenium red], in data set [4], the “effect on the CBD-induced increase of [Ca2+]IC” value is “antagonized”.

For the molecule `O=C(CCCCCCCC(=O)NCCO)NCCO` [Adelmidrol], in the data set on mild AD, the “efficacy in mild AD” value is “effective in treating mild AD”.

As to `CC[C@H](C)[C@H](N)C1=N[C@H](C(=O)N[C@@H](CC(C)C)C(=O)N[C@H](CCC(=O)O)C(=O)N[C@H](C(=O)N[C@H]2CCCCNC(=O)[C@H](CC(N)=O)NC(=O)[C@@H](CC(=O)O)NC(=O)[C@H](Cc3cnc[nH]3)NC(=O)[C@@H](Cc3ccccc3)NC(=O)[C@H]([C@@H](C)CC)NC(=O)[C@@H](CCCN)NC2=O)[C@@H](C)CC)CS1` [BAC, Bacitracin] (HELM PEPTIDE1{[CC[C@H](C)[C@H](N)C1=N[C@H](C(=O)[*:2])CS1].L.[dE].I.K.[NCCC[C@@H](N[*:1])C(=O)[*:2]].I.[dF].H.[dD].N}$PEPTIDE1,PEPTIDE1,5:R3-11:R2$$$V2.0), the “reduction of MIC of BAC versus BAC alone” value is no less than 64 fold in data set [1] (MRSA, combined with ½ MIC of C3D); no less than 64 fold in the data set with Enterococcus faecalis (combined with ½ MIC of C3D); no less than 64 fold in data set [5] (combined with ½ MIC of C3D).

With `Cc1c(C(=O)Nc2cccc(C(F)(F)F)c2)cc(-c2ccccc2)n1CCCN1CCOCC1` [HC067047], the basal lipid synthesis entry in the data set on SZ95 sebocytes [6] (TRPV4 antagonist alone) is “did not affect basal lipid synthesis”. The “effect on the lipid synthesis-inhibitory (lipostatic) action of CBD” value (shortened to “effect on the lipid synthesis-inhibitory”) in the data set with SZ95 sebocytes [6] is given as “prevented”. In addition, the “effect on the CBD-induced increase of [Ca2+]IC” value in data set [4] is reported as “antagonized”.

Turning to `C=C(C)[C@@H]1CCC(C)=C[C@H]1c1c(O)cc(CCCCC)cc1O` [CBD, cannabidiol], the “lipid synthesis induced by arachidonic acid (AA)” value in the data set with SZ95 sebocytes [6] is “effectively inhibited”; in the data set on SZ95 sebocytes [6] (listed as CDI), “inhibit extraneous lipid synthesis”. The “lipid synthesis induced by the combination of linoleic acid and testosterone (LA-T)” value with SZ95 sebocytes [6] is listed as “effectively inhibited”; with SZ95 sebocytes [6] (listed as CDI) it was “inhibit extraneous lipid synthesis”. Besides, the lipogenesis entry in the data set on SZ95 sebocytes [6] (10 μM CBD, 6-day treatments) is “decreased”; in the data set with SZ95 sebocytes [6] (50 μM CBD), “decreased lipogenesis”. The “basal neutral (sebaceous) lipid synthesis” value in the data set on SZ95 sebocytes [6] (CBD 1-10 μM, 24-hour treatment) was “neither semiquantitative Oil Red O nor quantitative Nile Red staining indicated changes; also recorded: no changes”. In the data set on SZ95 sebocytes [6] (CBD 1-10 μM, dose-dependent), the “inhibition of the lipogenic action of AEA” value is “markedly inhibited; also recorded: quell the lipogenic actions in a dose-dependent manner”. For the same molecule, the “AA-enhanced "pathological" lipogenesis (lipidome)” value in the data set with SZ95 sebocytes [6] (acne-like conditions with AA) is recorded as “almost completely normalized”. For the same molecule, the AA-induced lipid synthesis result with SZ95 sebocytes [6] (setting [15]) is “did not influence”. Also, the basal lipid synthesis entry in the data set with SZ95 sebocytes [6] (setting [15]) is listed as “did not influence”. For the same molecule, the cell number result with SZ95 sebocytes [7] (10 μM CBD, elongated application, 6-day treatments) is “decreased; also recorded: reduced”. Besides, the cytotoxicity result with SZ95 sebocytes [7] (50 μM CBD) was “evoked apoptosis-driven cytotoxicity”. The “cellular viability, apoptosis, necrosis” value in the data set on SZ95 sebocytes [7] (CBD 1-10 μM) is “did not decrease cellular viability or induce either apoptosis or necrosis”. Moreover, the “proliferation of SZ95 sebocytes” value with SZ95 sebocytes [7] (CBD 1-10 μM) is reported as “significantly reduce”. For the same molecule, the “basal lipogenesis in situ” value in the data set with human sebaceous glands was “decreased basal lipogenesis”. The “expression of the proliferation marker MKI67” value in the data set on human sebaceous glands was “markedly suppressed”. Further, the “lipogenic action of AEA in situ” value in the data set with human sebaceous glands is on record as “completely prevented”. Moreover, in [8] (LPS-induced), the IL1B expression entry was “normalize”. Besides, the IL6 expression entry in data set [8] (LPS-induced) is on record as “normalize”. Further, the “elevation of TNFA expression” value is “completely prevented” in data set [8] (induced by TLR2 activator lipoteichoic acid (LTA)), “completely prevented” in data set [8] (induced by TLR4 activator LPS) and “prevent” in [8] (induced by pro-acne LA-T combination). Further, the membrane currents entry in [9] is “induced a mostly outwardly rectifying current and a positive shift in the reversal potential”. The “intracellular calcium concentration ([Ca2+]IC)” value in data set [4] was “significantly increased”. For the same molecule, the transdermal delivery entry in data set [10] is “successful transdermal delivery”. The “absorption after topical application” value in data set [11] was “well-absorbed”. Besides, the “expression of NRF2 target genes” value in [12] is listed as “induced the expression of several NRF2 target genes”. In addition, in the data set with mice epidermis, the “levels of HMOX1 and expression of keratins 16 and 17” value was “increased”. Besides, the “peroxide-induced reduction of polyunsaturated fatty acids in the cell membrane” value in the data set on human keratinocytes is given as “protective effect”. Also, the oxidative stress response entry in the data set with human keratinocytes (UVB irradiation and hydrogen peroxide) is “balance the oxidative stress response”. Further, in [13], the anti-inflammatory properties entry was “exhibit anti-inflammatory properties”. In addition, in data set [1], the “activity against a variety of MRSA strains” value is “potent activity”. Also, the “Minimum Inhibitory Concentration (MIC)” value in data set [1] (MRSA) is 4 µg/mL; in the data set on Listeria monocytogenes, 4 µg/mL; in the data set on Enterococcus faecalis, 8 µg/mL; in data set [5], 8 µg/mL. In data set [2], the “reactive oxygen species levels” value is “reduce reactive oxygen species levels in HDFs better than vitamin C”. The permeation entry in data set [14] is on record as “demonstrated CBD's permeation potential”.

On to `COc1ccc(C(=O)c2c(C)n(CCN3CCOCC3)c3cc(I)ccc23)cc1` [AM630], for which the “effect on the lipid synthesis-inhibitory” value with SZ95 sebocytes [6] was “neither CB1- nor CB2-specific antagonists (AM251 and AM630) were able to antagonize”.

With `COc1cc(CNC(=O)CCCC/C=C/C(C)C)ccc1O` [capsaicin], the “lipostatic action by activation of TRPV1” value in the data set with SZ95 sebocytes [6] was “potent lipostatic actions”.

Take `CCCCC/C=C\C/C=C\C/C=C\C/C=C\CCCC(=O)NCCO` [AEA, N-arachidonoyl ethanolamide]: the “lipid production in human sebocytes” value with SZ95 sebocytes [6] (low concentrations) is “stimulate lipid production”. The “apoptosis of human sebocytes” value with SZ95 sebocytes [7] (higher levels) is given as “induces apoptosis”.

As to `Cc1c(C(=O)NN2CCCCC2)nn(-c2ccc(Cl)cc2Cl)c1-c1ccc(I)cc1` [AM251], the “effect on the lipid synthesis-inhibitory” value with SZ95 sebocytes [6] was “neither CB1- nor CB2-specific antagonists (AM251 and AM630) were able to antagonize”.
